# Results from ChEMBL document CHEMBL3400087, “Modulating Acinetobacter baumannii biofilm development with molecules containing 3,4,5-trimethoxy-N,N',N'-trimethylbenzohydrazide moiety” (Bioorg Med Chem Lett, 2015).
# Active and inactive are the calls of the source. No cut-off for these calls is given here.
# Assays:
# Acinetobacter baumannii [1] = experiment: Inhibition of Acinetobacter baumannii AB5711 biofilm formation at 100 uM after 24 hrs by crystal violet staining-based static MBEC biofilm assay; assay type: functional, organism-based
# Acinetobacter baumannii [2] = experiment: Inhibition of Acinetobacter baumannii AB5711 biofilm formation at 200 uM after 24 hrs by crystal violet staining-based static MBEC biofilm assay; assay type: functional, organism-based
# Acinetobacter baumannii [3] = experiment: Inhibition of Acinetobacter baumannii AB5711 biofilm formation assessed as inhibition of cell adherence to surface at 100 uM by crystal violet staining-based modified microtiter biofilm assay; assay type: functional, organism-based
# Acinetobacter baumannii [4] = experiment: Inhibition of Acinetobacter baumannii AB5711 biofilm formation in 14-French silicone urethral catheter at 200 uM measured after overnight incubation by crystal violet staining-based spectrophotometry; assay type: functional, organism-based
# RAW264.7 = experiment: Cytotoxicity against mouse RAW264.7 cells assessed as reduction in cell viability at >200 uM after 24 hrs by trypan blue-staining based microscopic analysis; details: raw264.7, 24 h
SMILES,inhibition (Acinetobacter baumannii [1]),inhibition (Acinetobacter baumannii [2]),inhibition (Acinetobacter baumannii [3]),inhibition (Acinetobacter baumannii [4]),Activity (RAW264.7)
NNC(=O)c1cc(O)c(O)c(O)c1,inactive,Active,Active,Active,Toxic
COc1cc(C(=O)NN2c3ccccc3C(C)(C)C(C)(C)c3ccccc32)cc(OC)c1OC,inactive,Active,Active,Active,Toxic
COc1cc(C(=O)NNC(=S)NC(C)(C)C)cc(OC)c1OC,inactive,Active,Active,Active,Toxic
COc1cc(C(=O)NNC(=O)c2ccc(S(=O)(=O)C3CCC(C)CC3)cc2)cc(OC)c1OC (stereo not given),inactive,Active,Active,inactive,Toxic
CCNC(=S)NNC(=O)c1cc(OC)c(OC)c(OC)c1,inactive,Active,Active,Active,Toxic
COc1cc(C(=O)N2N=C(C3CC3)CC2(O)C(F)(F)F)cc(OC)c1OC (stereo not given),inactive,Active,Active,Active,Toxic
COc1ccccc1C(=O)NNC(=O)c1cc(OC)c(OC)c(OC)c1,inactive,Active,Active,inactive,Toxic
COc1cc(C(=O)NNC(=O)c2cccc(Cl)c2)cc(OC)c1OC,inactive,Active,Active,Active,Toxic
